One block for each compound: values may come before it.
Tests used:
[1] = test system: MCF-7 human breast cancer cell line; experiment: Growth inhibition by MTS assay in MCF-7 cells, alone and combined with FUdR; assay type: cell-based; conditions: MCF-7, MTS assay; for IC50: Homo sapiens, MCF7, read-out: concentration required to inhibit 50% cell growth; for combined drug effect with FUdR on growth inhibition: compound fixed at 62.5 μM with increasing concentrations of FUdR
Description: FIG. 9. Inhibitors of dUTPase induce growth arrest in the MCF-7 human breast cancer cell line. (A) MCF-7 cells were exposed to increasing concentrations of two novel dUTPase inhibitory lead compounds and growth inhibition was analyzed by MTS assay. […] (B) DU-203 at a fixed concentration of 62.5 μM was combined with increasing concentrations of FUdR and the combined drug effect analyzed by MTS assay and the degree of synergy determined using the methods of Chou and Talalay. […] BB-123 enhances the growth arrest of MCF-7 cells when combined with FUdR. (C) BB-123 at a fixed concentration of 62.5 μM was combined with increasing concentrations of FUdR and the combined drug effect analyzed as described previously.
Inhibitors of dUTPase induce growth arrest in the MCF-7 human breast cancer cell line. […] These growth inhibitory effects are consistent with the inhibition of dUTPase and the resultant accumulation of dUTP and uracil misincorporation during DNA replication. To test the specificity of these inhibitors, DU-203 and BB-123 were combined with the inhibitor of thymidylate synthase (TS), FUdR.

MCF-7 pTet-off cells [2] = experiment: Growth inhibition assay in MCF-7 pTet-off cells; assay type: cell-based; conditions: Homo sapiens, MCF7; MCF-7 cells, 72 h
Description: Growth Inhibition Assay MCF-7 pTet-off cells were transfected in the presence or absence of 0.5 μg/ml of dox and growth inhibition was measured as previously (9) using CellTiter 96® AQueous One Solution (Promega, Madison, Wis.). Cells were exposed to increasing concentrations of 5-FU for 72 h. Absorbance was measured using a SpectraMax 190 microplate reader (Molecular Devices, Sunnyvale, Calif.) at 490 nm, with drug treated cells compared to untreated controls set at 100%. Statistical significance was determined using a two-tailed unpaired Student's t-test (Graphpad, San Diego, Calif.).
We subsequently investigated the effects of dUTPase overexpression on growth inhibition following exposure of MCF-7 pTet-off cells to increasing concentrations of 5-FU.

MCF-7 pTet-off cells [3] = experiment: dUTP accumulation assay; assay type: cell-based, human; conditions: 24 h; for reduction in dUTP pool expansion with dUTPase overexpression versus basal dUTPase: 10 μM 5-FU or 1 μM FUdR
Description: FIG. 5. Elevated dUTPase Protects Breast Cancer Cells from 5-FU. (A) Western blot and analysis of dUTPase expression and corresponding dUTPase enzyme activity assay following 72 h transfection with pTre-Tight:DUT-N in the presence and absence of 0.5 μg/m1 dox, Histogram bars represent the mean ±SEM of corresponding Western lysates analyzed in duplicate. (B) Analysis of dUTP accumulation in pTre-Tight:DUT-N-transfected MCF-7 psTet-off cells with basal (+dox) and induced (−dox) dUTPase expression and treated with 10 μM 5-FU, 1 μM FUdR and taxol (paclitaxel) 5 nM for 24 h, % dUTP was calculated as described in ‘Materials and Methods’, Histogram bars represent the mean ±SEM of two independent treatments, †=dUTP not detected. (C) Growth inhibition measured by MTS assay in pTre-Tight:DUT-N-transfected MCF-7 pTet-off cells following treatment with increasing concentrations (in μM) of 5-FU for 72 h. Histogram bars represent the mean ±SEM of three independent treatments, *=p<0.05, **=p<0.01.
dUTP Accumulation Assay MCF-7 pTet-off cells were treated with specified concentrations of 5-FU, FUdR and taxol for indicated times, harvested, and 3×10^6 cells were analyzed for nucleotide pool content using the assay developed by Sherman and Fyfe (10) modified to detect levels of TTP and dUTP by pre-incubating extracts with recombinant dUTPase (9, 11). Radioactive incorporation, measured in the presence of dUTPase represented the TTP pool, while untreated extracts represented both the dUTP and TTP pools. dUTP accumulation was determined by subtracting the results of extracts treated with dUTPase from untreated extracts and presented as % accumulation in histogram format. Statistical significance was determined using a two-tailed unpaired Student's t-test (Graphpad, San Diego, Calif.).
Elevated dUTPase Protects Breast Cancer Cells from 5-FU. […] A tetracycline-repressible dUTPase expression construct and overexpressed dUTPase with an approximate 4-fold increase in expression and enzymatic activity in transfected tet-inducible MCF-7 pTet-off cells (FIG. 5A) was utilized. […]

DPD = target: T1, DPD (Homo sapiens, UniProt Q12882); conditions: cited from earlier work
T1 construct: host or cells: liver
T1 sequence (Q12882 4-1025): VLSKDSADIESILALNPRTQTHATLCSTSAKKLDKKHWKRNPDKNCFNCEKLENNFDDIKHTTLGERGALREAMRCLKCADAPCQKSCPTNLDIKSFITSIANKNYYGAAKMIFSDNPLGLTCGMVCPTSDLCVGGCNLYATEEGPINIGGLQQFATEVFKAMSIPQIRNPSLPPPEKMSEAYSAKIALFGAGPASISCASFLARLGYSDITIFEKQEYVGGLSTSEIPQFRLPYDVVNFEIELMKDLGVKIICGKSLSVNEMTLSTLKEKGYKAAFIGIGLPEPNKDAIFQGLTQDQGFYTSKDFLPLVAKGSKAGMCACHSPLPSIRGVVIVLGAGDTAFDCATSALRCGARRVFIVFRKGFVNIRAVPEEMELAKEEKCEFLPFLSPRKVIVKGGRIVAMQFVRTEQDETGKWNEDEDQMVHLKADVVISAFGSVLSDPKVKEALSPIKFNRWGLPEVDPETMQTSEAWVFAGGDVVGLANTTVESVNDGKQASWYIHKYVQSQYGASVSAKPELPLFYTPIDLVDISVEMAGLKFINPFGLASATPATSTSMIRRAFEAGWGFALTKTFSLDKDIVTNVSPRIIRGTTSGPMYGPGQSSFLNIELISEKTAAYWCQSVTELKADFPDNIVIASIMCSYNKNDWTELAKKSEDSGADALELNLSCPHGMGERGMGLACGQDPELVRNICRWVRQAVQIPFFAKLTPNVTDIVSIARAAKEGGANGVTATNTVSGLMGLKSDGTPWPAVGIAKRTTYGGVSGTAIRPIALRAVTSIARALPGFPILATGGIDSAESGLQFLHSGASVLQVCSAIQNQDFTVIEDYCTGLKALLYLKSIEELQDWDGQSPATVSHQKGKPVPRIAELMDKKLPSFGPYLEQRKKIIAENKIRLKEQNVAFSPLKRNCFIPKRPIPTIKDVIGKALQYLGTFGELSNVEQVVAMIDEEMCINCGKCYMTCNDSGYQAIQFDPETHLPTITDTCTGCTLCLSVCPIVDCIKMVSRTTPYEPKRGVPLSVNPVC

dUTPase = target: T2, dUTPase (Homo sapiens, UniProt P33316); experiment: dUTPase activity assay, % inhibition of dUTPase catalysis at 100 μM (Table 1); assay type: biochemical; conditions: fixed concentration of 100 μM
T2 sequence (P33316 94-252 limits assumed): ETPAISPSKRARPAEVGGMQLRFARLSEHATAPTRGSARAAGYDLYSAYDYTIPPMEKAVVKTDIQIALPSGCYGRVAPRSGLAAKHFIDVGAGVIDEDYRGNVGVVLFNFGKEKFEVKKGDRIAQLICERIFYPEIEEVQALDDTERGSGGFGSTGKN
Description: dUTPase Activity Assay Cells were harvested and protein isolated and quantified as per Western blotting. Twenty-five μg of total protein was normalized to a 20 μl reaction volume with PBS/protease inhibitor. Relative dUTPase activity was determined as previously described (9) and is expressed as fold-change compared to an identical transfection in the presence of 0.5 μg/ml dox.
These molecules were tested in our dUTPase activity assay at an initial 100 μM in vitro to determine their percentage inhibition of dUTPase catalysis relative to un-inhibited control. Table 1 illustrates the docking fitness scores of the top four active compounds and their ability to inhibit dUTPase activity.

advanced breast cancer = conditions: cited from earlier work; for time to progression: capecitabine alone, or lapatinib combined with capecitabine

Compound: CC(=O)O[C@H]1C(=O)[C@@]2(C)[C@H]([C@H](OC(=O)c3ccccc3)[C@]3(O)C[C@H](OC(=O)[C@H](O)[C@@H](NC(=O)c4ccccc4)c4ccccc4)C(C)=C1C3(C)C)[C@]1(OC(C)=O)CO[C@@H]1C[C@@H]2O [paclitaxel]
dUTP detection (MCF-7 pTet-off cells [3]; taxol 5 nM, basal or induced dUTPase expression): no detection of dUTP

Compound: CCCCCOC(=O)Nc1nc(=O)n([C@@H]2O[C@H](C)[C@@H](O)[C@H]2O)cc1F [capecitabine]
time to progression (advanced breast cancer): 19.7 weeks

Compound: CC(=O)CSc1nc2c(c(=O)[nH]c(=O)n2C)n1CC(O)COc1ccccc1C (centres unmarked) [BB37]
inhibition at 100 µM (dUTPase): 34%

Compound: CS(=O)(=O)CCNCc1ccc(-c2ccc3ncnc(Nc4ccc(OCc5cccc(F)c5)c(Cl)c4)c3c2)o1 [lapatinib]
time to progression (advanced breast cancer): 36.9 weeks | improved response rate compared to capecitabine alone (advanced breast cancer; combined with capecitabine, ErbB2 positive advanced breast cancer, previously failed multiple lines of therapy): 12.2%

Compound: O=c1[nH]c(=O)n([C@H]2C[C@H](O)[C@@H](CO)O2)cc1F [FUdR, fluorodeoxyuridine]
reduction in dUTP pool expansion with dUTPase overexpression versus basal dUTPase (MCF-7 pTet-off cells [3]): 38%

Further lines, with some results ahead:

IC50 [1]: 73.8 µM
Compound: CCc1ccc(N2CN(c3ccc(CC)cc3)CN(c3ccc(CC)cc3)C2)cc1 [BB123]
combined drug effect with FUdR on growth inhibition [1]: enhanced growth inhibition at all concentrations tested | combined drug effect with FUdR on growth inhibition ([1]; listed as BB-123): enhanced growth inhibition is observed at all concentrations tested

IC50 (MCF-7 pTet-off cells [2]): > 10 µM
Compound: O=c1[nH]cc(F)c(=O)[nH]1 [Compound 5-FU, 5-fluorouracil]
reduction in dUTP pool expansion with dUTPase overexpression versus basal dUTPase (MCF-7 pTet-off cells [3]): 37% | 5-FU degraded by DPD in the liver (DPD): > 80%

inhibition at 100 µM (dUTPase): 28.5%
Compound: Cc1cc(C)c(NC(=O)CSc2nc3ccc(NC(=O)CSc4nnc(COc5ccccc5)n4-c4ccccc4)cc3s2)c(C)c1 [Du 44]

IC50 [1]: 65.1 µM
Compound: COc1cc(/C=N/NC(=O)C(Cc2c[nH]c3ccccc23)NC(=O)OCc2ccccc2)cc([N+](=O)[O-])c1O (centres unmarked) [Du 203]
combined drug effect with FUdR on growth inhibition [1]: enhanced growth inhibition is observed at all concentrations tested

% dUTPase Inhibition (dUTPase): Inactive
Compound: N#Cc1c(N)nc(SCC(=O)c2ccc(F)cc2)c(C#N)c1-c1ccc(OCc2ccccc2)cc1 [Du 202]

inhibition at 100 µM (dUTPase): 55.7%
Compound: CCCc1ccc(OCC(=O)Nc2ccc(S(=O)(=O)Nc3onc(C)c3C)cc2)cc1 [Du 7]

From patent publication US20110212467A1, “INHIBITORS OF dUTPase” (UNIVERSITY OF SOUTHERN CALIFORNIA, priority 2008, published 2011)
